The values that follow come from patent publication US11372007B2, “Method of detecting biological material, and chemiluminescent indicator used therein” (Osaka University, priority 2017, dated 2022).

The structures appear in SMILES notation.

The target of one experiment is UnaG protein (wild type; UniProtKB/Swiss-Prot: P0DM59.1, GenBank: AB763906.1). The note with it: indirect bilirubin; Kumagai et al., Cell 2013, 153, 1602-1611; read-out: dissociation constant; cited from earlier work.
Experiment [1] addresses T1, UnaG (CΔ0)-NLuc (NΔ1) fusion protein (wild-type chemiluminescent bilirubin indicator, linker GT), SEQ ID NO: 12 (Anguilla japonica, UniProt P0DM59).
T1 construct: made in house; host or cells: E. coli JM109 (DE3)
In words: titration curve of the wild-type chemiluminescent bilirubin indicator with bilirubin (luminescence spectra, Hill fit). Type of experiment: binding. As to the method: The base sequence of this UnaG (CΔ0)-NLuc (NΔ1) fusion protein is represented by SEQ ID NO: 11, and the amino acid sequence of the same is represented by SEQ ID NO: 12.
The JM109 (DE3) strain transformed with the UnaG (CΔ0)-NLuc (NΔ1) fusion protein was cultured at 23° C. for 60 hours in 200 mL of LB medium containing 100 μg/mL Carvenisillin solution. After harvesting, the E. coli cells were disrupted by the French press method and purified by affinity chromatography using a Ni-NTA column (QIAGEN). Furthermore, in order to remove excess imidazole, a gel filtration column (PD-10, GE HealthCare) was used. The protein concentration was measured by the Bradford method.
500 μL of the purified UnaG (CΔ0)-NLuc (NΔ1) fusion protein was added to a 15-mL Falcon tube and frozen with liquid nitrogen. Thereafter, a powder of the protein solution was obtained by a lyophilizer. […]
0.01 nM, 0.05 nM, 0.1 nM, 0.5 nM, 1 nM, 2.5 nM, 5 nM, or 10 nM bilirubin (BR) solution and Coelenterazine-h at a final concentration of 5 μM were mixed with the UnaG(CΔ0)-NLuc(NΔ1) fusion protein at a final concentration of 5 nM, and luminescence spectra were measured using a multichannel spectroscope (PMA-12, manufactured by Hamamatsu Photonics K.K.) or a plate reader. […] Mean values of measured values obtained by three independent measurements were plotted, and then fitted as per the Hill equation. […]

T1 sequence (P0DM59 with tags, fused parts or gaps): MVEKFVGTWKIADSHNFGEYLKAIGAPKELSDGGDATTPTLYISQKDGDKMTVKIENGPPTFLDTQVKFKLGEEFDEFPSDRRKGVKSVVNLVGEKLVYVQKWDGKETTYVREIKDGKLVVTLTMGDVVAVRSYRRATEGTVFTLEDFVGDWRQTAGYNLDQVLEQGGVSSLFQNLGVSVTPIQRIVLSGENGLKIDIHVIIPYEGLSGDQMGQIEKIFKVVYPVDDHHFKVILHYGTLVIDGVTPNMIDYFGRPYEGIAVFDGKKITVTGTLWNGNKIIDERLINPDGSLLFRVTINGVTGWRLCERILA

With `C=CC1=C(C)/C(=C/c2[nH]c(Cc3[nH]c(/C=C4\NC(=O)C(C)=C4C=C)c(C)c3CCC(=O)O)c(CCC(=O)O)c2C)NC1=O` [indirect bilirubin], the Kd at UnaG protein was 0.098 nM.

In experiment [1] (fusion protein 5 nM, bilirubin 0.01-10 nM, Coelenterazine-h 5 μM, mean of three independent measurements, fitted as per the Hill equation), `C=CC1=C(C)/C(=C/c2[nH]c(Cc3[nH]c(/C=C4\NC(=O)C(C)=C4C=C)c(C)c3CCC(=O)O)c(CCC(=O)O)c2C)NC1=O` [bilirubin] displayed a Kd of 3.05 nM. Moreover, the “affinity for bilirubin (dissociation constant, Kd value), change on storage” value in experiment [1] (lyophilized sample dissolved in water, stored at room temperature) is “the affinity was slightly reduced”.
